Experimental data as given in patent publication US6858638B2, “Substituted indazoles, compositions containing them, method of production and use” (Aventis Pharma S.A., priority 2002, dated 2005).

Assays:
Aurora2 kinase = biological target: T1, Aurora2 kinase (Homo sapiens, UniProt O14965); experiment: Aurora2 kinase radioactivity scintillation assay using nickel chelate (NuMA substrate); assay type: biochemical; details: 10 μM; read-out: Aurora2 % inhib at 10 μM
T1 construct: A complete recombinant Aurora2 enzyme; His tag (N); made in house; host or cells: E. coli
T1 sequence (O14965 1-403): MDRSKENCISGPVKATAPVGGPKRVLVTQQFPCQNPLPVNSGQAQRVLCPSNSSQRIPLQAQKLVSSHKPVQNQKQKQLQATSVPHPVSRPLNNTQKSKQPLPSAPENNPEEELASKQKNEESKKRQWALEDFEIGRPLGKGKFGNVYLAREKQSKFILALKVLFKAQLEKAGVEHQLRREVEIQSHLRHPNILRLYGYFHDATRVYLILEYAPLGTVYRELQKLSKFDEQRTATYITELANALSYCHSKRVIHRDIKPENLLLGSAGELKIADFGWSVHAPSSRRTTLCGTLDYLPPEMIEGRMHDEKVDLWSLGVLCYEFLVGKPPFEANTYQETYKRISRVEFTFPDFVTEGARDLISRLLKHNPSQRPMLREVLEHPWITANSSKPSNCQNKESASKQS
Outline: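 His-tagged full-length Aurora2 (0.02 μM, E. coli) phosphorylating His-tagged NuMA C-terminal fragment (0.5 μM) with 1 μM ATP plus [33P]-ATP, 30 min at 37 °C, pH 7.5 Tris buffer with MgCl2. Nickel-chelate scintillation read; percent inhibition versus no-compound control.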

c-Src protein = experiment: Src kinase phosphorylation of biotinylated cdc2 substrate, fluorescence (DELFIA); assay type: biochemical, human
Outline: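 Recombinant human c-Src (SH3, SH2 and catalytic domains; baculovirus) phosphorylates biotinylated cdc2 substrate in 50 mM Tris, 10 mM MgCl2 with 10 μM ATP, 60 min at 30° C. Product captured on streptavidin and detected by Europium-anti-phosphotyrosine fluorescence (DELFIA). Reported as % inhibition of no-compound control.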

human Tie2 = biological target: T2, human Tie2 (Homo sapiens, UniProt Q02763); experiment: Tie2 phosphorylation of PLC, FlashPlate radioactivity assay; assay type: biochemical; details: read-out: TIE2 % inhib at 10 μM
T2 construct: amino acids of the intracellular domain 776-1124; made in house; host or cells: baculovirus expression system (vector pFastBacGT)
T2 sequence (Q02763 776-1124): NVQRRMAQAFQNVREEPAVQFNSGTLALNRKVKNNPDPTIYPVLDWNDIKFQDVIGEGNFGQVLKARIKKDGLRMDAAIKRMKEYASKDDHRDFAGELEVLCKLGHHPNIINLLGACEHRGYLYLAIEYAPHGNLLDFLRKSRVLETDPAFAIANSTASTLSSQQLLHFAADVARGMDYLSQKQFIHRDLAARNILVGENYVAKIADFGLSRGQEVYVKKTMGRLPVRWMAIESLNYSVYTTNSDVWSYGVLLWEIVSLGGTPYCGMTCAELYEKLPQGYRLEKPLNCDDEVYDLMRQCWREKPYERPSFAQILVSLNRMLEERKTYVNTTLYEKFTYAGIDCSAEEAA
Description: The coding sequence of human Tie2 corresponding to the amino acids of the intracellular domain 776-1124 was generated by PCR using the cDNA isolated from human placenta as model. This sequence was introduced into a baculovirus expression vector pFastBacGT in the form of a GST fusion protein.
The inhibitory effect of the molecules is determined in an assay of phosphorylation of PLC by Tie2 in the presence of GST-Tie2 purified to approximately 80% homogeneity. The substrate is composed of the SH2-SH3 fragments of PLC exprressed in the form of a GST fusion protein.
The kinase activity of Tie2 is measured in a 20 mM MOPS buffer, pH 7.2, containing 10 mM MgCl2, 10 mM MnCl2, 1 mM DTT and 10 mM of glycerophosphate. A reaction mixture composed of 70 μl of kinase buffer containing 100 ng of GST-Tie2 enzyme per well is placed in a FlashPlate 96-well plate kept on ice. 10 μl of the test molecule diluted in DMSO at a maximum concentration of 10% are then added. For a given concentration, each measurement is carried out in quadruplicate. The reaction is initiated by adding 20 μl of solution containing 2 μg of GST-PLC, 2 μM of cold ATP and 1 μCi of ^33P[ATP]. After incubation for 1 hour at 37° C., the reaction is stopped by adding 1 volume (100 μl) of 200 mM EDTA. After removing the incubation buffer, the wells are washed three times with 300 μl of PBS. The radioactivity is measured on a Wallac MicroBeta 1450.
The inhibition of the Tie2 activity is calculated and expressed as percentage inhibition compared to the control activity determined in the absence of compound.

| SMILES | inhibition at 10 µM (Aurora2 kinase) | SRC % inhib at 10 μM (c-Src protein) | inhibition at 10 µM (human Tie2) | melting point |
| --- | --- | --- | --- | --- |
| CS(=O)(=O)c1ccccc1S(=O)(=O)Nc1ccc2[nH]nc(-c3ccccc3)c2c1 [Example 7, 2-Methylsulfonyl-N-(3-phenyl-1H-indazol-5-yl)benzenesulfonamide] | 97% | 89% | 86% | 223 °C |
| O=S(=O)(Nc1ccc2[nH]nc(-c3ccccc3)c2c1)c1cccc(F)c1 [Example 6, 3-Fluoro-N-(3-phenyl-1H-indazol-5-yl)benzenesulfonamide] | 95% | 55% | 74% | 200 °C |
| CS(=O)(=O)c1ccccc1S(=O)(=O)Nc1ccc2[nH]nc(-c3cc4ccccc4s3)c2c1 [Example 65, N-(3-Benzo[b]thiophen-2-yl-1H-indazol-5-yl)-2-methylsulfonylbenzenesulfonamide] | 100% | 96% | – | 270 °C |
| CS(=O)(=O)c1ccccc1S(=O)(=O)Nc1ccc2[nH]nc(-c3ccc[nH]3)c2c1 [Example 60, 2-Methylsulfonyl-N-[3-(1H-pyrrol-2-yl)-1H-indazol-5-yl]benzenesulfonamide] | 100% | 98% | – | 255 °C |
| CS(=O)(=O)c1ccccc1S(=O)(=O)Nc1ccc2[nH]nc(Cl)c2c1 [Example 1, N-(3-Chloro-1H-indazol-5-yl)-2-methylsulfonylbenzenesulfonamide] | 86% | – | 18% | – |
| CS(=O)(=O)c1ccccc1S(=O)(=O)Nc1ccc2[nH]nc(-c3cc4ccccc4[nH]3)c2c1 [Example 61, N-[3-(1H-Indol-2-yl)-1H-indazol-5-yl]-2-methylsulfonylbenzenesulfonamide] | 100% | 99% | – | – |
| CS(=O)(=O)c1ccccc1S(=O)(=O)Nc1ccc2[nH]nc(-c3cccc(N)c3)c2c1 [Example 62, N-[3-(3-Aminophenyl)-1H-indazol-5-yl]-2-methylsulfonylbenzenesulfonamide] | 100% | 95% | – | 220 °C |
| CS(=O)(=O)c1ccccc1S(=O)(=O)Nc1ccc2[nH]nc(-c3nc4ccccc4[nH]3)c2c1 [Example 81, N-[3-(1H-Benzimidazol-2-yl)-1H-indazol-5-yl]-2-methylsulfonylbenzenesulfonamide] | 100% | 100% | – | – |
| Cc1n[nH]c2ccc(NS(=O)(=O)c3ccccc3S(C)(=O)=O)cc12 [Example 10, 2-Methylsulfonyl-N-(3-methyl-1H-indazol-5-yl)benzenesulfonamide] | 90% | – | 33% | – |
| CS(=O)(=O)c1ccccc1S(=O)(=O)Nc1ccc2[nH]ncc2c1 [Example 13, 2-Methylsulfonyl-N-(1H-indazol-5-yl)benzenesulfonamide] | 76% | – | 22% | 245 °C |
| O=S(=O)(Nc1ccc2[nH]nc(Cl)c2c1)c1cccc(F)c1 [Example 3, N-(3-Chloro-1H-indazol-5-yl)-3-fluorobenzenesulfonamide] | 46% | – | 15% | – |
| O=S(=O)(Nc1ccc2[nH]nc(-c3ccccc3)c2c1)c1ccc(Cl)c(Cl)c1 [Example 8, 3,4-Dichloro-N-(3-phenyl-1H-indazol-5-yl)benzenesulfonamide] | 59% | – | 56% | 216 °C |
| CS(=O)(=O)c1ccccc1S(=O)(=O)Nc1ccc2[nH]nc(-c3ccc(Cl)cc3)c2c1 [Example 30, N-[3-(4-Chlorophenyl)-1H-indazol-5-yl]-2-methylsulfonylbenzenesulfonamide] | 100% | 72% | – | 242 °C |
| CN(C)c1ccc(-c2n[nH]c3ccc(NS(=O)(=O)c4ccccc4S(C)(=O)=O)cc23)cc1 [Example 63, N-[3-(4-Dimethylaminophenyl)-1H-indazol-5-yl]-2-methylsulfonylbenzenesulfonamide] | 100% | 46% | – | – |
| Cc1n[nH]c2ccc(NS(=O)(=O)c3cccc(F)c3)cc12 [Example 9, 3-Fluoro-N-(3-methyl-1H-indazol-5-yl)benzenesulfonamide] | 61% | – | 29% | 120 °C |

More lines, now with the values ahead:

| inhibition at 10 µM (Aurora2 kinase) | SRC % inhib at 10 μM (c-Src protein) | inhibition at 10 µM (human Tie2) | melting point | SMILES |
| --- | --- | --- | --- | --- |
| 92% | 43% | – | – | O=S(=O)(Nc1ccc2[nH]nc(-c3ccccc3)c2c1)c1ccc(F)c(F)c1 [Example 152, 3,4-Difluoro-N-(3-phenyl-1H-indazol-5-yl)-benzenesulfonamide] |
| 100% | 23% | – | – | O=[N+]([O-])c1ccccc1S(=O)(=O)Nc1ccc2[nH]nc(-c3ccccc3)c2c1 [Example 113, 2-Nitro-N-(3-phenyl-1H-indazol-5-yl)benzenesulfonamide] |
| 99% | 57% | – | – | COc1cccc(S(=O)(=O)Nc2ccc3[nH]nc(-c4ccccc4)c3c2)c1 [Example 156, 3-Methoxy-N-(3-phenyl-1H-indazol-5-yl)-benzenesulfonamide] |
| 100% | 39% | – | – | O=S(=O)(Nc1ccc2[nH]nc(-c3ccccc3)c2c1)c1ccc(F)cc1 [Example 117, 4-Fluoro-N-(3-phenyl-1H-indazol-5-yl)-benzenesulfonamide] |
| 100% | 44% | – | – | O=S(=O)(Nc1ccc2[nH]nc(-c3ccccc3)c2c1)c1ccccc1F [Example 134, 2-Fluoro-N-(3-phenyl-1H-indazol-5-yl)-benzenesulfonamide] |
| 100% | 45% | – | – | O=S(=O)(Nc1ccc2[nH]nc(-c3ccccc3)c2c1)c1cccs1 [Example 110, N-(3-Phenyl-1H-indazol-5-yl)-thiophene-2-sulfonamide] |
| 99% | 39% | – | – | Cc1cccc(S(=O)(=O)Nc2ccc3[nH]nc(-c4ccccc4)c3c2)c1 [Example 138, 3-Methyl-N-(3-phenyl-1H-indazol-5-yl)-benzenesulfonamide] |
| 100% | 42% | – | – | O=S(=O)(Nc1ccc2[nH]nc(-c3ccccc3)c2c1)c1ccccc1C(F)(F)F [Example 109, N-(3-Phenyl-1H-indazol-5-yl)-2-trifluoromethylbenzene-sulfonamide] |
| 95% | 44% | – | – | N#Cc1cccc(S(=O)(=O)Nc2ccc3[nH]nc(-c4ccccc4)c3c2)c1 [Example 154, 3-Cyano-N-(3-phenyl-1H-indazol-5-yl)-benzenesulfonamide] |
| 100% | 75% | – | – | O=S(=O)(Nc1ccc2[nH]nc(-c3ccccc3)c2c1)c1cc(F)cc(F)c1 [Example 158, 3,5-Difluoro-N-(3-phenyl-1H-indazol-5-yl)-benzenesulfonamide] |
